Among the targets are FRK (Homo sapiens, UniProt P42685); RET(M918T) (Homo sapiens, UniProt P07949, M918T); ROS1 (Homo sapiens, UniProt P08922); ERBB4 (Homo sapiens, UniProt Q15303); MET(Y1235D) (Homo sapiens, UniProt P08581, Y1235D); MARK1 (Homo sapiens, UniProt Q9P0L2); AKT3 (Homo sapiens, UniProt Q9Y243).
Common to all, as to assay: biochemical
Common to all, as to design: DiscoveRx KINOMEscan active site-directed competition binding; percent of control kinase bound to immobilised ligand

Another assay deals with T1, NEK10 (Homo sapiens, UniProt Q6ZWH5).
T1 sequence (Q6ZWH5 1-1172): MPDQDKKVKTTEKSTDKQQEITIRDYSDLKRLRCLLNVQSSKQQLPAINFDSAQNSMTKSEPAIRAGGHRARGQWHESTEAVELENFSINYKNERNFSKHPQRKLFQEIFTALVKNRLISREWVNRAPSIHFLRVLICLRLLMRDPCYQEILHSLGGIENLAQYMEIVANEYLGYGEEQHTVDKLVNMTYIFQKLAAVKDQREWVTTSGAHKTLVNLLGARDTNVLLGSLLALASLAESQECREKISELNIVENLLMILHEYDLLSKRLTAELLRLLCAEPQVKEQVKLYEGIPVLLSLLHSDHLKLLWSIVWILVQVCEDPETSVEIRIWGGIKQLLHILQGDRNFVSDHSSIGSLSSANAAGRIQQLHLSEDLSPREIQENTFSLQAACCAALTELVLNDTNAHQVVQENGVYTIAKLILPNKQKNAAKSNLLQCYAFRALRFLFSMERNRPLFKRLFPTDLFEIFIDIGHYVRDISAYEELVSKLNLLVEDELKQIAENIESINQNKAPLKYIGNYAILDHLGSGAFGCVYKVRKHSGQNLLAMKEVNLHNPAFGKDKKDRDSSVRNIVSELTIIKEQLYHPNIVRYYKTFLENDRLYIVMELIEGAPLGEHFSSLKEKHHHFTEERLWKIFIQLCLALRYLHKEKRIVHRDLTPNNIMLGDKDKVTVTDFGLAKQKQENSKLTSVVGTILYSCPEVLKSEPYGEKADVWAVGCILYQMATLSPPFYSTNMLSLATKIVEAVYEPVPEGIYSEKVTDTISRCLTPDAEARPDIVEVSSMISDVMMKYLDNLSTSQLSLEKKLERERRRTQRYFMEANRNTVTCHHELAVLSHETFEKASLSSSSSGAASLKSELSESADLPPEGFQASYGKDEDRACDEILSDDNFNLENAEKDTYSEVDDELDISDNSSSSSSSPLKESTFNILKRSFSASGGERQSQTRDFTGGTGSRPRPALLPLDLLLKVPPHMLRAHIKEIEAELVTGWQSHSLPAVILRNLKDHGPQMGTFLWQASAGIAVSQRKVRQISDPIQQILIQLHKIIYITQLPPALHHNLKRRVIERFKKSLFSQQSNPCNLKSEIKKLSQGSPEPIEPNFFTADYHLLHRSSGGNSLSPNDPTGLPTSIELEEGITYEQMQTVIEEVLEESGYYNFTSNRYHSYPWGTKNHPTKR

The next assay concerns the target T2, TNNI3K (Homo sapiens, UniProt Q59H18).
T2 sequence (Q59H18 1-835): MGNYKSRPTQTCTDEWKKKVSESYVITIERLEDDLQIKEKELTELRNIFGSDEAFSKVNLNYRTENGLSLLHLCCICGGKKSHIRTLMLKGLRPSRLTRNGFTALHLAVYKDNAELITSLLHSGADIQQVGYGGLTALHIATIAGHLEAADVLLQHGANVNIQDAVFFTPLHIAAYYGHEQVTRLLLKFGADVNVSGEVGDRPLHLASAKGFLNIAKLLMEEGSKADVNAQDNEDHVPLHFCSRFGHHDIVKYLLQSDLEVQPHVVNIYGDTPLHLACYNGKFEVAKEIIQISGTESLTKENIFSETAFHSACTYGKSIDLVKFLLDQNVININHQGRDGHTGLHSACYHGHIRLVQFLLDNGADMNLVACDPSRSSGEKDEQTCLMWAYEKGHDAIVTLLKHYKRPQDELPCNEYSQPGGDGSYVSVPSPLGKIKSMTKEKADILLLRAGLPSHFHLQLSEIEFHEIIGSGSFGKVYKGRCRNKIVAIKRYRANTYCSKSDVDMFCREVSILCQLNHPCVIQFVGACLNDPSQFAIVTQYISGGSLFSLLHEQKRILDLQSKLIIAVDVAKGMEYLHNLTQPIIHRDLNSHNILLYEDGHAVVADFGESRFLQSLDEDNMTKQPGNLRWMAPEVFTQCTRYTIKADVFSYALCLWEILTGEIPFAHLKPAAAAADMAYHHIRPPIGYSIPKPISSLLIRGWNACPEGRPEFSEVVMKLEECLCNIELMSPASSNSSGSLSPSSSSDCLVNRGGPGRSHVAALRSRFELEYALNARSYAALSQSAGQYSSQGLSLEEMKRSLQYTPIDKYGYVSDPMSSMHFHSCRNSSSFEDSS

The target in assay [1] is T3, RPS6KA4(Kin.Dom.2-C-terminal) (Homo sapiens, UniProt O75676).
T3 construct: Kin.Dom.2-C-terminal

Where [2] appears, read: read-out: Rucaparib / %Ctrl @ 10000nM, binding competition, % of control.
The mark [3] stands for this setting: read-out: Talazoparib (BMN 673) / %Ctrl @ 10000nM.
Setting [4] is: read-out: Niraparib (MK-4827) / %Ctrl @ 10000nM.
The mark [5] stands for this setting: read-out: Olaparib / %Ctrl @ 10000nM.

Like-named read-outs stand apart in the source and are kept apart here.

Chain of MET(Y1235D) (P08581 whole entry Y1235D): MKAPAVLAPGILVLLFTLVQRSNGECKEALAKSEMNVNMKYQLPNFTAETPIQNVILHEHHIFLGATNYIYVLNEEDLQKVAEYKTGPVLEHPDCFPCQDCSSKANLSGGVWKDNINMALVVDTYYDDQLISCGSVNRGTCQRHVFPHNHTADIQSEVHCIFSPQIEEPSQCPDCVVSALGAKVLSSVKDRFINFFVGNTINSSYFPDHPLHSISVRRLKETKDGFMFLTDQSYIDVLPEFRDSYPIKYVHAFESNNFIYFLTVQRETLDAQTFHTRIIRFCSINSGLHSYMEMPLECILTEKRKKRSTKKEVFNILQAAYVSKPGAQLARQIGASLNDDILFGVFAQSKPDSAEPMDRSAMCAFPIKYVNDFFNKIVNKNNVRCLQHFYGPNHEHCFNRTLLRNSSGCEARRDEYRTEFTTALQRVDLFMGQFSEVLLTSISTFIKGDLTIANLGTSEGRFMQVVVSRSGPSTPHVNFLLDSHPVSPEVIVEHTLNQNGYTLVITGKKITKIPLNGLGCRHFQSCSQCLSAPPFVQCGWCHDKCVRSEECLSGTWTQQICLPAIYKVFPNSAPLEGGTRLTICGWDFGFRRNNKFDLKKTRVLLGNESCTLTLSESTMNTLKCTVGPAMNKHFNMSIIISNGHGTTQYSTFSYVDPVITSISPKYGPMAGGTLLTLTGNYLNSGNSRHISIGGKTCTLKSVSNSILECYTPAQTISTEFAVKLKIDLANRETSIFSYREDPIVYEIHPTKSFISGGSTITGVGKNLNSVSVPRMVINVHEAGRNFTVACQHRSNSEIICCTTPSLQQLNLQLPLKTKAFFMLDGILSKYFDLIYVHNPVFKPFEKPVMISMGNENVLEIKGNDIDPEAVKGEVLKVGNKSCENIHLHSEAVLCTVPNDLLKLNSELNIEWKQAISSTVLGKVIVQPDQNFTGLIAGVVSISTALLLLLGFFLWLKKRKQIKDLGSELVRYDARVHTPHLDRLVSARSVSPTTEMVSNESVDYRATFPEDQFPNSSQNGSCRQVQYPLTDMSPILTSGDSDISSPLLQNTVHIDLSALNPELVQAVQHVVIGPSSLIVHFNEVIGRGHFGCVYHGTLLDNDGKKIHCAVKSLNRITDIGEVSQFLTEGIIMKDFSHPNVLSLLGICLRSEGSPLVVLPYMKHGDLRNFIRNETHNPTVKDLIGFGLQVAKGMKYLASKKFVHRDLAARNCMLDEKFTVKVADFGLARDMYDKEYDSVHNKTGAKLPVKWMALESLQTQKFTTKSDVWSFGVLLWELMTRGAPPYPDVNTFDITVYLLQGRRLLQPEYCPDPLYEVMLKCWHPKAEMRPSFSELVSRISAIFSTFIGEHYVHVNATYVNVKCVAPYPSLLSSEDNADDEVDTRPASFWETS
Chain of RET(M918T) (P07949 whole entry M918T): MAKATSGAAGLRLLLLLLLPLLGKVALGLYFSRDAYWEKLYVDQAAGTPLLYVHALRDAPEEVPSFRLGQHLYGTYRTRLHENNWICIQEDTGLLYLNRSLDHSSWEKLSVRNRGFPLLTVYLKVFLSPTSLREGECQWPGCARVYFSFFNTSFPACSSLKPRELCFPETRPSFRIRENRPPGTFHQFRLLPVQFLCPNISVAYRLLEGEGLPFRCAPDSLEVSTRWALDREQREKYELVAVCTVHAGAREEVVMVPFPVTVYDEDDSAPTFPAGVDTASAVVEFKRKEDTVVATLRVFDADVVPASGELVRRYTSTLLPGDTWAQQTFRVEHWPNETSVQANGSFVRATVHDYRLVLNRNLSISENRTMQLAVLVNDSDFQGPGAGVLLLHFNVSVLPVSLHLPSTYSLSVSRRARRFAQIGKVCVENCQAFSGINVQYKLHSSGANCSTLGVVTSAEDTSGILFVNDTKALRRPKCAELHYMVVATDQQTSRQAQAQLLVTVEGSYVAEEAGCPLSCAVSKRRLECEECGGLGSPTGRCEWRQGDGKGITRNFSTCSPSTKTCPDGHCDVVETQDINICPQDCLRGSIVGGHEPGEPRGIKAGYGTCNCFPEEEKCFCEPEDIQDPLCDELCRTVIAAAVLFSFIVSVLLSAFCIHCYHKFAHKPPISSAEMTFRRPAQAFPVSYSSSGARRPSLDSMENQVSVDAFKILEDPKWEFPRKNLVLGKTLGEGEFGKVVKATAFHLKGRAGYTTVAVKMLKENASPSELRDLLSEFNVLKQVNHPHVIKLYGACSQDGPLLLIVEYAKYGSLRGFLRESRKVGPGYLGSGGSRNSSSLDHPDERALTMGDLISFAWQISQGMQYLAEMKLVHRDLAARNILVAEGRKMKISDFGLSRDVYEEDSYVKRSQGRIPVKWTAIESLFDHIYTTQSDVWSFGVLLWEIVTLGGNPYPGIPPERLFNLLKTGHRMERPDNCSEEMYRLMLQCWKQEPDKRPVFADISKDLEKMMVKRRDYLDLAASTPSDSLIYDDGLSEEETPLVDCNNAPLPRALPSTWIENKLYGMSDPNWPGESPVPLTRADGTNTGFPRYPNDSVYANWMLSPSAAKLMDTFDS
Chain of MARK1 (Q9P0L2 whole entry): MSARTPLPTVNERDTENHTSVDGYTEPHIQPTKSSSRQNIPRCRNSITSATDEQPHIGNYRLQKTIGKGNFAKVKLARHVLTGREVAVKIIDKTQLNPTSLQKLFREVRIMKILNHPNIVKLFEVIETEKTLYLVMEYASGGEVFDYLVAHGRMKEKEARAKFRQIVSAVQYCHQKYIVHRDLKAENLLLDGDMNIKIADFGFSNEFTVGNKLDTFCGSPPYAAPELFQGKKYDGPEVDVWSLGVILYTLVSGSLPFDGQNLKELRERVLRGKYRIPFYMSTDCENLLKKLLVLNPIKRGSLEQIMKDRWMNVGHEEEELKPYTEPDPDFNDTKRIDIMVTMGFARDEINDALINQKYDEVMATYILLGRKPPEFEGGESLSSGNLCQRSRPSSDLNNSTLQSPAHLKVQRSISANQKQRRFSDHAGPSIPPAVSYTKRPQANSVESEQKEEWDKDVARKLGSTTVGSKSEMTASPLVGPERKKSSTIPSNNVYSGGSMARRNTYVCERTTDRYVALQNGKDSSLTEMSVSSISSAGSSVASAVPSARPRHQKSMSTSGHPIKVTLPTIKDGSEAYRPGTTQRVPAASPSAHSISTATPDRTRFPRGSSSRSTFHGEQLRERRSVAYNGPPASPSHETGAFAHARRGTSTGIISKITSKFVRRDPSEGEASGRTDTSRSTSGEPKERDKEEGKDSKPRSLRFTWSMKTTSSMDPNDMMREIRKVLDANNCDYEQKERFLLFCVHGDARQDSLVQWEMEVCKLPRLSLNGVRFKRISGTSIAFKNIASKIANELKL
Chain of ERBB4 (Q15303 whole entry): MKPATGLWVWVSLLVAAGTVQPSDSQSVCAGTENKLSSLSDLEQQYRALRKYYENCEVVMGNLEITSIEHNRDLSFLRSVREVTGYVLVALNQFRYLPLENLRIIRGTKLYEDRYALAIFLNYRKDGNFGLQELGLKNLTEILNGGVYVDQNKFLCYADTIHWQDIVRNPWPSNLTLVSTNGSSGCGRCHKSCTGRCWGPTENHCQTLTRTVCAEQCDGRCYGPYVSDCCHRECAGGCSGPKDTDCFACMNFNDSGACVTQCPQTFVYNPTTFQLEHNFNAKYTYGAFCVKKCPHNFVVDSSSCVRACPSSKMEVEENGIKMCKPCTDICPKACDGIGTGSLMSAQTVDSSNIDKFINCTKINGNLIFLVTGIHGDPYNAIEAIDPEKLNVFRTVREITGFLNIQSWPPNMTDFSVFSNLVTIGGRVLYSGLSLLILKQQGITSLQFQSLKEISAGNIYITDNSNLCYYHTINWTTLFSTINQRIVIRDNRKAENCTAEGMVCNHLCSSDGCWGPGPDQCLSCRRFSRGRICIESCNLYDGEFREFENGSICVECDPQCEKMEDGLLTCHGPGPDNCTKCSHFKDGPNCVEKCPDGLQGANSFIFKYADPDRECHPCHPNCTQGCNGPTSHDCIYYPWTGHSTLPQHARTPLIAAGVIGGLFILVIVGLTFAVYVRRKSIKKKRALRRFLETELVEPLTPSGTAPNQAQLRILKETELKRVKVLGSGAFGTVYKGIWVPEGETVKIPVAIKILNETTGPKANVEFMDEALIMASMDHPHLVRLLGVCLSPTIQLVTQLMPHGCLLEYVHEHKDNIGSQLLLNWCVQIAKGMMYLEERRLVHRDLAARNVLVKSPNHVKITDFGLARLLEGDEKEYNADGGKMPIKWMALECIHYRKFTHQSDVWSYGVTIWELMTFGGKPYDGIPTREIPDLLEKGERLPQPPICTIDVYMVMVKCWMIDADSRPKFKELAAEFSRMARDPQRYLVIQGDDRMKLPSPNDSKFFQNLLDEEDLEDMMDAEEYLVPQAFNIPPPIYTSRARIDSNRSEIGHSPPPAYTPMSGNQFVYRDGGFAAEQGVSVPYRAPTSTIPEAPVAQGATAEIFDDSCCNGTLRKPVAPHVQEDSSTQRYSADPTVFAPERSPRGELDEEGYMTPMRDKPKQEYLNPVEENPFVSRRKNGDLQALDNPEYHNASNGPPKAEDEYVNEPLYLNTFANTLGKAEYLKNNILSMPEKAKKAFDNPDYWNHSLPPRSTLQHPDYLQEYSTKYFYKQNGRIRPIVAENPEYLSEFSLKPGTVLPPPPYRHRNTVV
Chain of AKT3 (Q9Y243 whole entry): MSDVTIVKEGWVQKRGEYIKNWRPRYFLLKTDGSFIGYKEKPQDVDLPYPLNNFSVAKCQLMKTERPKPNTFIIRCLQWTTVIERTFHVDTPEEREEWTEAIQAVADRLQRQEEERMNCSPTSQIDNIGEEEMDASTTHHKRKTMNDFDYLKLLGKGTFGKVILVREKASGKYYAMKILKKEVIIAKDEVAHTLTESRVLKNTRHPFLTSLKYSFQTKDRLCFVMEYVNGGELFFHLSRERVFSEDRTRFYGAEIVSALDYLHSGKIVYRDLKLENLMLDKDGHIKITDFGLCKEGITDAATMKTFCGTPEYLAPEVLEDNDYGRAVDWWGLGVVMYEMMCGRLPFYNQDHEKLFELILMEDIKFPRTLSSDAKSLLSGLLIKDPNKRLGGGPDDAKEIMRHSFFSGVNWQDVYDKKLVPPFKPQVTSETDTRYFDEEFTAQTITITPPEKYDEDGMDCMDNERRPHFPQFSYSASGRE

Regarding `CNCc1ccc(-c2[nH]c3cc(F)cc4c3c2CCNC4=O)cc1` [Rucaparib], the percent of control binding at 10 µM turned out to be 97% on FRK (setting [2]); 97% at RET(M918T) (setting [2]); 14% at NEK10 (setting [2]); 82% at ROS1 (setting [2]); 92% on TNNI3K (setting [2]); 89% at ERBB4 (setting [2]). Besides, the percent of control binding at 10 µM on MET(Y1235D) (setting [2]) was 92%; on MARK1 (setting [2]), 85%; at AKT3 (setting [2]), 100%; in assay [1] (setting [2]), 91%.

With `Cn1ncnc1[C@H]1c2n[nH]c(=O)c3cc(F)cc(c23)N[C@@H]1c1ccc(F)cc1` [Talazoparib], the percent of control binding at 10 µM came out at 85% at FRK (setting [3]); 96% on RET(M918T) (setting [3]); 100% at NEK10 (setting [3]); 94% at ROS1 (setting [3]); 100% on TNNI3K (setting [3]); 91% on ERBB4 (setting [3]). In addition, the percent of control binding at 10 µM stood at 96% on MET(Y1235D) (setting [3]), 89% on MARK1 (setting [3]), 88% on AKT3 (setting [3]) and 100% in assay [1] (setting [3]).

On to `NC(=O)c1cccc2cn(-c3ccc([C@@H]4CCCNC4)cc3)nc12` [Niraparib], for which the percent of control binding at 10 µM at FRK (setting [4]) was determined as 91%; at RET(M918T) (setting [4]), 95%; at NEK10 (setting [4]), 68%; at ROS1 (setting [4]), 80%; on TNNI3K (setting [4]) it was 95%; on ERBB4 (setting [4]), 99%. For the same molecule, the percent of control binding at 10 µM on MET(Y1235D) (setting [4]) came to 75%; on MARK1 (setting [4]), 93%; at AKT3 (setting [4]), 97%; in [1] (setting [4]), 80%.

Take `O=C(c1cc(Cc2n[nH]c(=O)c3ccccc23)ccc1F)N1CCN(C(=O)C2CC2)CC1` [Olaparib]: the percent of control binding at 10 µM on FRK (setting [5]) is 90%; on RET(M918T) (setting [5]), 100%; on NEK10 (setting [5]), 78%; at ROS1 (setting [5]), 97%; on TNNI3K (setting [5]) it was 84%; at ERBB4 (setting [5]) it was 89%. In addition, the percent of control binding at 10 µM on MET(Y1235D) (setting [5]) was 82%; at MARK1 (setting [5]) it was 93%; on AKT3 (setting [5]), 100%; in [1] (setting [5]), 92%.

The record behind these values is publication PMC7026418, “The kinase polypharmacology landscape of clinical PARP inhibitors” (Scientific Reports, 2020).
